Data on two compounds can be found in BindingDB's records for doi:10.1124/jpet.103.049395 (Lcg Bioscience, 2003).

As usually defined, the Ki is a measure of affinity in units of concentration, obtained from inhibition or displacement. Higher therefore signals lower affinity.

The structures appear in SMILES notation. Where a SMILES comes first, the peptide text is derived from it. Bridges are numbered along the chain shown (N, C = ends). [ ]: non-standard residue; d: D form. Orn = NCCC[C@H](N)C(=O)O; Mpa = O=C(O)CCS

The target of test [1] is T1, Oxytocin receptor (Rattus norvegicus, UniProt P70536).
T1 sequence (P70536 whole entry): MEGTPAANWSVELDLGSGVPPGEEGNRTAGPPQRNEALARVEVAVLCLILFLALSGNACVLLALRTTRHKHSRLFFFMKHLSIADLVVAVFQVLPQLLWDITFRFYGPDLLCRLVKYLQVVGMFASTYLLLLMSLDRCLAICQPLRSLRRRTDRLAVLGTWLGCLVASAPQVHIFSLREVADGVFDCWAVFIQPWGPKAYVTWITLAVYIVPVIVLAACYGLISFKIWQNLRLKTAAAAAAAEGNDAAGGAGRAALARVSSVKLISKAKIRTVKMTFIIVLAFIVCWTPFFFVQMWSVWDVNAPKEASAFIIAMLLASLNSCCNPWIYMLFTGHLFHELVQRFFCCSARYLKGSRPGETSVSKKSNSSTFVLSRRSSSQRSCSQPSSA

In the next test the target is Vasopressin V2 receptor (Homo sapiens, UniProt P30518).
Sequence of Vasopressin V2 receptor (P30518 whole entry): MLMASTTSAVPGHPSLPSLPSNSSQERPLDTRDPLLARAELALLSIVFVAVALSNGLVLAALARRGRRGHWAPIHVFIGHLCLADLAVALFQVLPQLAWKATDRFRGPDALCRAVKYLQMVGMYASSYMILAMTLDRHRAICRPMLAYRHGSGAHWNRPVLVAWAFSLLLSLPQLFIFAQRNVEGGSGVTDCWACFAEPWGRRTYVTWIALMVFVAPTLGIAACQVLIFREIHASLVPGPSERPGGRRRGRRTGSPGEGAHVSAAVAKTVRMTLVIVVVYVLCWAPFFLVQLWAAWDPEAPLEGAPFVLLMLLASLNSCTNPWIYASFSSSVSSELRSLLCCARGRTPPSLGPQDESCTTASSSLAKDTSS
A further test addresses Vasopressin V1a receptor (Homo sapiens, UniProt P37288).
Test [2] addresses T2, Oxytocin receptor (Homo sapiens, UniProt P30559).
T2 sequence (P30559 whole entry): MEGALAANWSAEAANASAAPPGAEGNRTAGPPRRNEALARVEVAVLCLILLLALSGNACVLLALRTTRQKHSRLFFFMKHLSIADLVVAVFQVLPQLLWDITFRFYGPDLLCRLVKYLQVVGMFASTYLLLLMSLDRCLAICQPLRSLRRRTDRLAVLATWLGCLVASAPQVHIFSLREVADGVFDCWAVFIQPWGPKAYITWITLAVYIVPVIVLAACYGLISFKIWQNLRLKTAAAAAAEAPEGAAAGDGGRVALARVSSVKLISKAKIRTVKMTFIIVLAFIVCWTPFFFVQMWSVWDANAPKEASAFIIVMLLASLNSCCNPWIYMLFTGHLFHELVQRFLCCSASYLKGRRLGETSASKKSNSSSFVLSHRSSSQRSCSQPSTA

The target of a further test is T3, Vasopressin V1b receptor (Homo sapiens, UniProt P47901).
T3 sequence (P47901 whole entry): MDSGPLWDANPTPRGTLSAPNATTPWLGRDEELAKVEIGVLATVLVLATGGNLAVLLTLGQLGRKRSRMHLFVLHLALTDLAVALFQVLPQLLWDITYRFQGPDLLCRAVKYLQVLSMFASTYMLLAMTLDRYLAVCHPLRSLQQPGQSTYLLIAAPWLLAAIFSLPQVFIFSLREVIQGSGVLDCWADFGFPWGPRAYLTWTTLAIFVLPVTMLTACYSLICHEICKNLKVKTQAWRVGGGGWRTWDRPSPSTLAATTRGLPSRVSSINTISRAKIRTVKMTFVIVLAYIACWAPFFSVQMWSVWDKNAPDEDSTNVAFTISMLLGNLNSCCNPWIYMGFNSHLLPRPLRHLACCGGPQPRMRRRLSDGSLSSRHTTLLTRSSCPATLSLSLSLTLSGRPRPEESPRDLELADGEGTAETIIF

Sequence of Vasopressin V1a receptor (P37288 whole entry): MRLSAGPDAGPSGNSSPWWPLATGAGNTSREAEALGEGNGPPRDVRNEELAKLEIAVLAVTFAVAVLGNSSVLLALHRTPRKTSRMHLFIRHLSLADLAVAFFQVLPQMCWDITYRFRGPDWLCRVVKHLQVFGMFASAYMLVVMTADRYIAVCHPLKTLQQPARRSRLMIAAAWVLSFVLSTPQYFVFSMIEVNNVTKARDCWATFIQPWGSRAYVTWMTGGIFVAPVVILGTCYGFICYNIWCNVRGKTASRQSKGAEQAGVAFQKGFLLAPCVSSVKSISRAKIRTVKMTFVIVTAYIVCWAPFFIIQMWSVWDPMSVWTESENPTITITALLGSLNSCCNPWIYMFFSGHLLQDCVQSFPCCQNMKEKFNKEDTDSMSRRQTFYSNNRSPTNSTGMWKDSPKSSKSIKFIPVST

Turning to `CO/N=C1/C[C@@H](C(=O)NC[C@@H](O)c2ccccc2)N(C(=O)c2ccc(-c3ccccc3C)cc2)C1` [(2S,4Z)-N-[(2S)-2-hydroxy-2-phenylethyl]-4-(methoxyimino)-1-[(2'-methyl[1,1'-biphenyl]-4-yl)carbonyl]-2-pyrrolidinecarboxamide], the Ki on Oxytocin receptor [1] was 0.135 µM; at Vasopressin V2 receptor it was more than 10 µM; on Vasopressin V1a receptor, 0.17 µM; on Oxytocin receptor [2], 0.017 µM; at Vasopressin V1b receptor it was more than 10 µM.
For `CCOc1ccc(C[C@H]2NC(=O)CCSSC[C@@H](C(=O)N3CCC[C@H]3C(=O)N[C@@H](CCCN)C(=O)NCC(N)=O)NC(=O)[C@H](CC(N)=O)NC(=O)[C@H]([C@@H](C)O)NC(=O)[C@H]([C@@H](C)CC)NC2=O)cc1` [CAS_90779-69-4] ([Mpa][dY](Et)ITNCP[Orn]G-NH2; disulfide 1-6), the Ki on Vasopressin V2 receptor is 0.954 µM; on Vasopressin V1a receptor it was 0.0035 µM; at Oxytocin receptor [2] it was 0.081 µM; on Vasopressin V1b receptor, 0.657 µM.
